These are literature values, as cited in patent publication US20170007630A1, “COMPOSITION AND METHOD OF DELIVERY OF L-ARABINOSE AND SELECT COMPOUNDS” (priority 2011, published 2017).

The conditions of data set [1]: one study conducted in China.
In data set [2] the target is T1, sucrase (Homo sapiens, UniProt P14410). To be noted: compared with sucrose.
Data set [3] deals with T1, sucrase.

T1 sequence (P14410 whole entry): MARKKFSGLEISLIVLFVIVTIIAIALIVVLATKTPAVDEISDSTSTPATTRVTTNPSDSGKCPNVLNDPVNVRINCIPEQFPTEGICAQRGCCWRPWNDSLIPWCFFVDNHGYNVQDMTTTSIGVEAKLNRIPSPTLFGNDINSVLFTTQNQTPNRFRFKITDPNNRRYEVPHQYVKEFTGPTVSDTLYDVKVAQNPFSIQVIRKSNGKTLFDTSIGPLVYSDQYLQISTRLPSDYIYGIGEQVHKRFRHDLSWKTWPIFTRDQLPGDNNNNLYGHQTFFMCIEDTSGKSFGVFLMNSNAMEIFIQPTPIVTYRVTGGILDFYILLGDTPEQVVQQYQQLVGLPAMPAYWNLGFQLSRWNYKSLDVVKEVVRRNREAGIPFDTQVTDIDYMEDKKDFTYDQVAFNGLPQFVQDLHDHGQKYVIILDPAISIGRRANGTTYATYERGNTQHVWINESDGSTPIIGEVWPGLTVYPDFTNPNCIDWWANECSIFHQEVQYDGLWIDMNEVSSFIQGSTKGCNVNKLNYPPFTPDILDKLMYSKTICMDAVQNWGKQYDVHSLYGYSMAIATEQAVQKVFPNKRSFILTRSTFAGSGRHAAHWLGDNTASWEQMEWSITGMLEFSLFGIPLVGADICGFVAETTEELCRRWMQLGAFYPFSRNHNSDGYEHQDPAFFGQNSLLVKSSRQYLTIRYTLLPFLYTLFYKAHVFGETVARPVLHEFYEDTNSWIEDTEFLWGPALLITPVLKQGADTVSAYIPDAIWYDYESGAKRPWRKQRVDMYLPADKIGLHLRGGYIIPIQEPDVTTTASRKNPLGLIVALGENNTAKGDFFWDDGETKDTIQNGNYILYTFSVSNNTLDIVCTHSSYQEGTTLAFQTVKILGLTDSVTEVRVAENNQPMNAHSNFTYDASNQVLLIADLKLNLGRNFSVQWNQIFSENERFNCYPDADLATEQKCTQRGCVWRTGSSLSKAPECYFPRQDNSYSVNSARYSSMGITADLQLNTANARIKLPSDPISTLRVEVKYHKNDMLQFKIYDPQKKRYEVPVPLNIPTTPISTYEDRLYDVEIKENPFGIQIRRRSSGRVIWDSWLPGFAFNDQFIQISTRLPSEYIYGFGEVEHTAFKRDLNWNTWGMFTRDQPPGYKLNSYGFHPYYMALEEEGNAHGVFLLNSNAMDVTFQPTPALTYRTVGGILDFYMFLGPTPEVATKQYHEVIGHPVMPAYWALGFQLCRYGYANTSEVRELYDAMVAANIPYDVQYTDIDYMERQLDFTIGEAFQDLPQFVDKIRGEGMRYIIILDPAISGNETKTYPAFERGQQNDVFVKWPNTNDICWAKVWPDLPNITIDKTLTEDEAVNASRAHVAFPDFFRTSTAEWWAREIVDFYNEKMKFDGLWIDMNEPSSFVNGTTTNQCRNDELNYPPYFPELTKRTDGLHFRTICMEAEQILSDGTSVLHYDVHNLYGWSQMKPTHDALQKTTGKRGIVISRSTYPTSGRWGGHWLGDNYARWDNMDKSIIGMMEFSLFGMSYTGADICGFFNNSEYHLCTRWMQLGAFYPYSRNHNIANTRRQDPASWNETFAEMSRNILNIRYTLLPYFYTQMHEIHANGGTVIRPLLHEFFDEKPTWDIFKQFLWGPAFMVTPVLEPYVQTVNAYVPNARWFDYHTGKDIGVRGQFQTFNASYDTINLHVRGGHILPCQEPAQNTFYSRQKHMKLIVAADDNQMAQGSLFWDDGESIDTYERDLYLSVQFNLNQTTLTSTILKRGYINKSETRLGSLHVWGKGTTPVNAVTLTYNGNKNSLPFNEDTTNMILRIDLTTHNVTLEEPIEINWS

On to `O=C[C@H](O)[C@@H](O)[C@@H](O)CO` [L-arabinose], for which the “participants that experienced discomforts such as loose bowel or diarrhea” value in data set [1] is “about 40%”. Moreover, the “affinity to sucrase relative to sucrose” value at sucrase [2] is “approximately 5 times”. Also, at sucrase [3], the “parts of sucrose inhibited from breakdown per one part of L-arabinose” value is on record as “up to 20 parts”.
